From patent US10851412B2, “Cell potency assay for therapeutic potential” (FATE THERAPEUTICS, INC., priority 2013, dated 2020)

System: Human umbilical cord blood
Assay: Cell potency assay: real-time PCR signature gene expression score of treated cord blood
Type: cell-based
Protocol: Human umbilical cord blood was treated ex vivo with 16,16, dimethyl prostaglandin E2 (dmPGE2) prior to transplantation. Real-time PCR transcript quantitation of gene expression from the treated cord blood cells was used to determine the therapeutic potential of the cells. RNA was extracted from an aliquot (100 uL) of the treated cord blood cells using the PicoPure RNA Isolation kit (Life Technologies) using the manufacturer's recommended protocol. Total RNA was quantified using the Nanodrop 2000 Spectrophotometer (Thermo Scientific). Complimentary DNA (cDNA) was reverse transcribed from 50 ng of total RNA using the High-Capacity cDNA Reverse Transcription Kit (Life Technologies).
Quantitative PCR was performed in triplicate for each gene in the amplified cDNA using StepOne Plus (Applied Biosystems) and Taqman gene expression assays (Life Technologies) and 40 cycles of real-time PCR. Results of the real-time PCR were analyzed using the StepOne Software v2.1 analysis package (Applied Biosystems). Expression values of the transcripts were normalized to the Taqman gene expression average for the housekeeping genes, GAPDH and HPRT1, to determine the relative expression levels (ΔCt values). […]

SMILES: CCCCC(C)(C)[C@H](O)/C=C/[C@H]1[C@H](O)CC(=O)[C@@H]1C/C=C\CCCC(=O)O [dmPGE2, 16,16, dimethyl prostaglandin E2]
- gene expression in the group of signature genes (real-time PCR) (human umbilical cord blood after a two hour treatment): Increased gene expression
- gene expression score (standardized Euclidean distance model vs training set) (human umbilical cord blood treated ex vivo, about two hours at 37° C. with 10 μM dmPGE2, test samples n=10, mean +/- SD, positive scores cluster with samples having therapeutic potential): 16.8+/−2.2
